Laboratory results from patent EP0080283B1, “N-carboxyalkylproline-containing tripeptides” (SMITHKLINE BECKMAN CORPORATION, priority 1981, dated 1983).
Structures can show the parent of a compound that is named as a salt.

Tests used:
anesthetized dogs = test: renal anesthetized dog screening protocol (renal vasodilator activity test, infusion); assay type: in vivo; set-up: renal blood flow / renal vascular resistance: dose or concentration left out as unconfirmed; details: for renal vasodilators: primary test period of the screening protocol
From the text: Representative specific results are included in the examples.

[1] = tested on: spontaneously hypertensive rats (SHR); test: spontaneously hypertensive rat test, diuretic naturetic assay; assay type: in vivo
Protocol: In this test, male, Okamato-Aoki strain, spontaneously hypertensive rats, aged 16-19 weeks, are fasted, then, the following afternoon, the first dose of test compound is adminstered, along with a 25 ml/kg p.o. load of normal saline. The animals are, then, placed in metabolism cages and urine collected for three hours for analysis. Indirect systolic blood pressure and heart rate are measured by a tail-cuff. An identical second dose of test compound is adminstered. After two hours, blood pressure and heart rate are again tested. The test compound is usually administered p.o. or i.p. in saline with 0.02% ascorbic acid.

[2] = tested on: angiotensin coverting enzyme; test: angiotensin converting enzyme inhibiting activity; assay type: in vivo; details: at 10 times its renally effective dose
[3] = tested on: dopamine-sensitive adenylate cyclase system; test: dopamine-sensitive adenylate cyclase system in vitro; assay type: biochemical
toad bladder = toad bladder anti-ADH assay
[4] = bradycardic effect (heart rate; test not specified); details: in vivo
[5] = accumulative effect at 300 dose, 2 anesthetized dogs
[6] = 30 µg/kg/min, 3 anesthetized dogs
[7] = two anesthetized dogs, 3, 30 and 300

SMILES: NCCCC[C@H](NC(=O)[C@@H]1CCCN1CC(=O)O)C(=O)N1CCC[C@H]1C(=O)O [N-carboxymethyl-L-propyl-L-lysyl-L-proline, reference compound]
- renal vasodilators (anesthetized dogs): inactive

SMILES: O=C(O)CN1CCC[C@H]1C(=O)N[C@@H](Cc1ccccc1)C(=O)N1CCC[C@H]1C(=O)O [Example 2 barium salt, N-carboxymethyl-L-prolyl-L-phenylalanyl-L-proline]
- activity within the parameters of anesthetized dog screening test (anesthetized dogs; dog, in vivo): not active

SMILES: C[C@H](NC(=O)[C@@H]1CCCN1CCC(=O)O)C(=O)N1CCC[C@H]1C(=O)O [Example 4, N-(2-carboxyethyl)-L-prolyl-L-alanyl-L-proline]
- decrease in renal vascular resistance (anesthetized dogs; [5]): 23%
- increase in renal blood flow (anesthetized dogs; [5]): 34%

SMILES: O=C(O)CN1CCCC1C(=O)NCC(=O)N1CCC[C@H]1C(=O)O (stereo partly drawn) [N-carboxymethyl-propyl-glycyl-L-proline, reference compound]
- renal vasodilators (anesthetized dogs): inactive

SMILES: C[C@H](NC(=O)[C@@H]1CCCN1CC(=O)O)C(=O)N1CCC[C@H]1C(=O)O [Example 1 barium salt, N-carboxymethyl-L-propyl-L-alanyl-L-proline]
- decrease in renal vascular resistance (anesthetized dogs; [6]): 15%
- increase in renal blood flow (anesthetized dogs; [6]): 21.7%

SMILES: CC(C(=O)O)N1CCC[C@H]1C(=O)NCCC(=O)N1CCC[C@H]1C(=O)O (stereo partly drawn) [N-(1-carboxyethyl)-L-propyl-β-alanyl-L-proline, reference compound]
- renal vasodilators (anesthetized dogs): inactive

SMILES: O=C(O)CN1CCC[C@H]1C(=O)NCCC(=O)N1CCC[C@H]1C(=O)O [Example 3, N-carboxymethyl-L-prolyi-o-alanyl-L-proline sulfate]
- ED15 (anesthetized dogs; Canis lupus familiaris, iv, anesthetized renal dog protocol, read-out: RVR-ED15): 0.012 mg/kg
- renal blood flow (anesthetized dogs; [7]): increased renal blood flow
- renal vascular resistance (anesthetized dogs; [7]): decreased renal vascular resistance
- Urine ([1]; 25 mg/kg i.p., n=3, control 3): 16 ml/rat
- K^9 ([1]; 25 mg/kg i.p., n=3, control 85.12): 242.53
- Na⊕ ([1]; 25 mg/kg i.p., n=3, control 126.76): 676.04
- Na^l, K° or urine excretion ([1]; 25 and 50 mg/kg i.p.): significant increase
- angiotensin coverting enzyme inhibiting activity [2]: did not have angiotensin coverting enzyme inhibiting activity
- stimulate or antagonize the dopamine-sensitive adenylate cyclase system [3]: did not stimulate or antagonize
- toad bladder anti-ADH assay activity (toad bladder): nor was it active
- bradycardic effect [4]: weak bradycardic effect

SMILES: O=C(O)CN1CCC[C@H]1C(=O)N[C@@H](Cc1ccccc1)C(=O)N1CCC[C@H]1C(=O)O [Example 2 sulfate, N-carboxymethyl-L-prolyl-L-phenylalanyl-L-proline]
- renal blood flow (anesthetized dogs; 30 and 300): increased renal blood flow
